Data from PMC6271228, “Diethyl 2-(Phenylcarbamoyl)phenyl Phosphorothioates: Synthesis, Antimycobacterial Activity and Cholinesterase Inhibition” (Molecules, 2014).
Converted amounts (≈) assume the structure as drawn. Where two headings read alike, the source gives them in different places.

Columns and labels:
M. avium My 330/88 = test: microbe, parasite or virus in culture; format: cell-based, Mycobacterium avium; conditions: for MIC: Mycobacterium avium, 37 °C; for MIC values against M. avium: all MIC values (14 and 21 d)
BChE from equine serum = target: T1, BChE from equine serum (Equus caballus, UniProt P81908); test: BChE inhibition, modified Ellman's method; format: biochemical
T1 construct: butyrylcholinesterase from equine serum; from tissue; host or cells: equine serum
From the text: (§1) The ability of the tested compounds to inhibit AChE from electric eel (Electrophorus electricus L.) and BChE from equine serum was screened in vitro using modified Ellman’s method for the evaluation of cholinesterase activity. […] […]. These two standards were chosen due to their different structures. […]. The choice of these drugs with different mechanism of action can provide relevant results. All tested compounds expressed a good inhibitory activity with IC50s in low micromolar values.
(§2) The IC50 values were determined using the spectrophotometric Ellman’s method, which is a simple, rapid and direct method to determine the SH and -S-S- group content in proteins. This method is widely used for cholinesterase activity evaluation and screening of the efficiency of cholinesterase inhibitors. Cholinesterase activity is measured indirectly by quantifying the concentration of 5-thio-2-nitrobenzoic acid (TNB) ion formed in the reaction between the thiol reagent 5,5'-dithiobis-2-nitrobenzoic acid (DTNB) and thiocholine, a product of substrate hydrolysis by cholinesterase (i.e., acetylthiocholine, ATCh). All the tested compounds were dissolved in dimethyl sulfoxide (concentration 0.01 M) and then diluted in demineralised water (concentration 0.001 M and 0.0001 M). The Ellman’s method is slightly modified according to Zdrazilova et al.. Acetylcholinesterase was obtained from electric eel (Electrophorus electricus L.) and butyrylcholinesterase from equine serum.

M. kansasii My 235/80 = test: microbe, parasite or virus in culture; format: cell-based, Mycobacterium kansasii; conditions: Mycobacterium kansasii, 37 °C
[1] = system: Mycobacterium tuberculosis My 331/88 (H37Rv); test: microbe, parasite or virus in culture; format: cell-based
[2] = system: M. kansasii 6509/96 (clinically isolated); test: microbe, parasite or virus in culture; format: cell-based; conditions: Mycobacterium kansasii, 37 °C
AChE from electric eel = target: T2, AChE from electric eel (Electrophorus electricus, UniProt O42275); test: AChE inhibition, modified Ellman's method; format: biochemical, Electrophorus electricus L.
T2 construct: Acetylcholinesterase was obtained from electric eel (Electrophorus electricus L.); from tissue; host or cells: electric eel (Electrophorus electricus L.)
From the text: as §1, §2

[3] = MY330/88, 336 h, 14 d, read-out: MIC M. avium 330/88 14 d
[4] = MY330/88, 504 h, 21 d, read-out: MIC M. avium 330/88 21 d
[5] = MY235/80, 168 h, 7 d, read-out: MIC M. kansasii 235/80 7 d
[6] = MY235/80, 336 h, 14 d, read-out: MIC M. kansasii 235/80 14 d
[7] = MY235/80, 504 h, 21 d, read-out: MIC M. kansasii 235/80 21 d
[8] = 336 h, 14 d, 37 °C, read-out: MIC Mtb 331/88 (H37Rv) 14 d
[9] = 504 h, 21 d, 37 °C, read-out: MIC Mtb 331/88 (H37Rv) 21 d
[10] = 168 h, 7 d, read-out: MIC M. kansasii 6509/96 7 d
[11] = 336 h, 14 d, read-out: MIC M. kansasii 6509/96 14 d
[12] = 504 h, 21 d, read-out: MIC M. kansasii 6509/96 21 d

T1 sequence (P81908 whole entry): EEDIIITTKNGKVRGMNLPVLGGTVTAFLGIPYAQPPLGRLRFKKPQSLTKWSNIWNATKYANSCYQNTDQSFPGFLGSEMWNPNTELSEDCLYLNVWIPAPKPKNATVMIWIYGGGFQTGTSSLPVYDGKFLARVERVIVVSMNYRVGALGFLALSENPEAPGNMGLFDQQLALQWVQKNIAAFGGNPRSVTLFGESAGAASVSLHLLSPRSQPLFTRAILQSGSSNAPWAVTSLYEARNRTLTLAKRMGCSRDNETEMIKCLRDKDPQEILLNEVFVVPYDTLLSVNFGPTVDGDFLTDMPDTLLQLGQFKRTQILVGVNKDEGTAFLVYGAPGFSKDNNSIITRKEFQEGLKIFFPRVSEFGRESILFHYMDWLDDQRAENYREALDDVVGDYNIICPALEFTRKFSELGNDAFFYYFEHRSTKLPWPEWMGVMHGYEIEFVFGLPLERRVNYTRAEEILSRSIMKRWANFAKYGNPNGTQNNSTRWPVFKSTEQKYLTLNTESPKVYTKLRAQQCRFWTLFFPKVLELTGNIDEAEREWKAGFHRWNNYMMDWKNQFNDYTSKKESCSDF
T2 sequence (O42275 24-633): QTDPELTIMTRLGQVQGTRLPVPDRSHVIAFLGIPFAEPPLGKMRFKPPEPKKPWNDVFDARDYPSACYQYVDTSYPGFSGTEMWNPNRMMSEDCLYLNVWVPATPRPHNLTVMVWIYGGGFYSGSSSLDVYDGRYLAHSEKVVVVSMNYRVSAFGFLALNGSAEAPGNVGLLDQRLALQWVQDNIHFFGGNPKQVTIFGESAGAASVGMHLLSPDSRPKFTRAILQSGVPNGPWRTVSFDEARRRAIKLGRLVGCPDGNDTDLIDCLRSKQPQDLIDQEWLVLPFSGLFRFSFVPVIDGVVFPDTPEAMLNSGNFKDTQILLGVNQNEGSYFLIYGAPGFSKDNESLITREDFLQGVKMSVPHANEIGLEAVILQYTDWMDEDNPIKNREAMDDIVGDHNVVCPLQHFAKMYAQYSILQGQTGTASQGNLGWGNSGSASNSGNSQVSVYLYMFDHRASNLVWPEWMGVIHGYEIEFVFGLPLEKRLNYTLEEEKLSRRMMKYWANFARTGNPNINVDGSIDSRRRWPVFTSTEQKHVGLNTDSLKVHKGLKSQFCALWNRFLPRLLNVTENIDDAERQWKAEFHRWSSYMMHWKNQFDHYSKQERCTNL

Structure (SMILES): CCOP(=S)(OCC)Oc1ccc(Cl)cc1C(=O)Nc1cccc(F)c1 [1o, O-{4-Chloro-2-[(3-fluorophenyl)carbamoyl]phenyl} O,O-diethyl phosphorothioate]
- MIC (M. avium My 330/88; [3]): 500 µM (≈ 209 µg/mL)
- MIC (M. avium My 330/88; [4]): 500 µM (≈ 209 µg/mL)
- IC50 (BChE from equine serum): 11.8 ± 0.6 µM
- MIC (M. kansasii My 235/80; [5]): 250 µM (≈ 104 µg/mL)
- MIC (M. kansasii My 235/80; [6]): 500 µM (≈ 209 µg/mL)
- MIC (M. kansasii My 235/80; [7]): > 500 µM
- MIC [1, 8]: 32 µM (≈ 13.4 µg/mL)
- MIC [1, 9]: 32 µM (≈ 13.4 µg/mL)
- MIC [2, 10]: 250 µM (≈ 104 µg/mL)
- MIC [2, 11]: 500 µM (≈ 209 µg/mL)
- MIC [2, 12]: 500 µM (≈ 209 µg/mL)
- IC50 (AChE from electric eel): 9.94 ± 0.2 µM

Structure (SMILES): CCOP(=S)(OCC)Oc1ccc(Cl)cc1C(=O)Nc1ccc(F)cc1 [1p, O-{4-Chloro-2-[(4-fluorophenyl)carbamoyl]phenyl} O,O-diethyl phosphorothioate]
- MIC (M. avium My 330/88; [3]): 500 µM (≈ 209 µg/mL)
- MIC (M. avium My 330/88; [4]): 500 µM (≈ 209 µg/mL)
- IC50 (BChE from equine serum): 14.9 ± 0.8 µM
- MIC (M. kansasii My 235/80; [5]): 250 µM (≈ 104 µg/mL)
- MIC (M. kansasii My 235/80; [6]): 500 µM (≈ 209 µg/mL)
- MIC (M. kansasii My 235/80; [7]): > 500 µM
- MIC [1, 8]: 16 µM (≈ 6.69 µg/mL)
- MIC [1, 9]: 16 µM (≈ 6.69 µg/mL)
- MIC [2, 10]: 125 µM (≈ 52.2 µg/mL)
- MIC [2, 11]: 250 µM (≈ 104 µg/mL)
- MIC [2, 12]: 500 µM (≈ 209 µg/mL)
- IC50 (AChE from electric eel): 13.6 ± 1.1 µM

Structure (SMILES): CCOP(=S)(OCC)Oc1ccc(Cl)cc1C(=O)Nc1cccc(C(F)(F)F)c1 [1q, O-(4-Chloro-2-{[3-(trifluoromethyl)phenyl]carbamoyl}phenyl) O,O-diethyl phosphorothioate]
- MIC (M. avium My 330/88; [3]): 500 µM (≈ 234 µg/mL)
- MIC (M. avium My 330/88; [4]): > 500 µM
- IC50 (BChE from equine serum): 19.9 ± 0.2 µM
- MIC (M. kansasii My 235/80; [5]): 125 µM (≈ 58.5 µg/mL)
- MIC (M. kansasii My 235/80; [6]): 500 µM (≈ 234 µg/mL)
- MIC (M. kansasii My 235/80; [7]): > 500 µM
- MIC [1, 8]: 8 µM (≈ 3.74 µg/mL)
- MIC [1, 9]: 8 µM (≈ 3.74 µg/mL)
- MIC ([1]; read-out: MIC against Mtb): 8 µM (≈ 3.74 µg/mL)
- MIC [2, 10]: 125 µM (≈ 58.5 µg/mL)
- MIC [2, 11]: 500 µM (≈ 234 µg/mL)
- MIC [2, 12]: 500 µM (≈ 234 µg/mL)
- IC50 (AChE from electric eel): 12.1 ± 0.2 µM

Structure (SMILES): CCOP(=S)(OCC)Oc1ccc(Cl)cc1C(=O)Nc1ccc(C(F)(F)F)cc1 [1r, O-(4-Chloro-2-{[4-(trifluoromethyl)phenyl]carbamoyl}phenyl) O,O-diethyl phosphorothioate]
- MIC (M. avium My 330/88; [3]): 500 µM (≈ 234 µg/mL)
- MIC (M. avium My 330/88; [4]): 500 µM (≈ 234 µg/mL)
- IC50 (BChE from equine serum): 15.6 ± 0.7 µM
- MIC (M. kansasii My 235/80; [5]): 62.5 µM (≈ 29.2 µg/mL)
- MIC (M. kansasii My 235/80; [6]): 125 µM (≈ 58.5 µg/mL)
- MIC (M. kansasii My 235/80; [7]): 250 µM (≈ 117 µg/mL)
- MIC [1, 8]: 8 µM (≈ 3.74 µg/mL)
- MIC [1, 9]: 8 µM (≈ 3.74 µg/mL)
- MIC ([1]; read-out: MIC against Mtb): 8 µM (≈ 3.74 µg/mL)
- MIC [2, 10]: 62.5 µM (≈ 29.2 µg/mL)
- MIC [2, 11]: 125 µM (≈ 58.5 µg/mL)
- MIC [2, 12]: 250 µM (≈ 117 µg/mL)
- IC50 (AChE from electric eel): 9.7 ± 0.18 µM

Structure (SMILES): CCOP(=S)(OCC)Oc1cc(Cl)ccc1C(=O)Nc1cccc(Cl)c1 [1s, O-{5-Chloro-2-[(3-chlorophenyl)carbamoyl]phenyl} O,O-diethyl phosphorothioate]
- MIC (M. avium My 330/88; [3]): 125 µM (≈ 54.3 µg/mL)
- MIC (M. avium My 330/88; [4]): 125 µM (≈ 54.3 µg/mL)
- MIC values against M. avium (M. avium My 330/88): ≤ 250 µM
- IC50 (BChE from equine serum): 12.5 ± 0.1 µM
- MIC (M. kansasii My 235/80; [5]): 32 µM (≈ 13.9 µg/mL)
- MIC (M. kansasii My 235/80; [6]): 125 µM (≈ 54.3 µg/mL)
- MIC (M. kansasii My 235/80; [7]): 125 µM (≈ 54.3 µg/mL)
- MIC [1, 8]: 16 µM (≈ 6.95 µg/mL)
- MIC [1, 9]: 32 µM (≈ 13.9 µg/mL)
- MIC [2, 10]: 32 µM (≈ 13.9 µg/mL)
- MIC [2, 11]: 62.5 µM (≈ 27.1 µg/mL)
- MIC [2, 12]: 125 µM (≈ 54.3 µg/mL)
- IC50 (AChE from electric eel): 9.79 ± 0.2 µM

Structure (SMILES): CCOP(=S)(OCC)Oc1cc(Cl)ccc1C(=O)Nc1ccc(Cl)cc1 [1t, O-{5-Chloro-2-[(4-chlorophenyl)carbamoyl]phenyl} O,O-diethyl phosphorothioate]
- MIC (M. avium My 330/88; [3]): 125 µM (≈ 54.3 µg/mL)
- MIC (M. avium My 330/88; [4]): 125 µM (≈ 54.3 µg/mL)
- MIC values against M. avium (M. avium My 330/88): ≤ 250 µM
- IC50 (BChE from equine serum): 13.8 ± 0.05 µM
- MIC (M. kansasii My 235/80; [5]): 32 µM (≈ 13.9 µg/mL)
- MIC (M. kansasii My 235/80; [6]): 32 µM (≈ 13.9 µg/mL)
- MIC (M. kansasii My 235/80; [7]): 32 µM (≈ 13.9 µg/mL)
- MIC [1, 8]: 32 µM (≈ 13.9 µg/mL)
- MIC [1, 9]: 32 µM (≈ 13.9 µg/mL)
- MIC [2, 10]: 32 µM (≈ 13.9 µg/mL)
- MIC [2, 11]: 62.5 µM (≈ 27.1 µg/mL)
- MIC [2, 12]: 62.5 µM (≈ 27.1 µg/mL)
- IC50 (AChE from electric eel): 10.8 ± 0.3 µM
